According to US6878713B2, “Generation triple-targeting, chiral, broad-spectrum antimicrobial 7-substituted piperidino-quinolone carboxylic acid derivatives, their preparation, compositions and use as medicaments” (Wockhardt Limited, priority 2001, dated 2005):
In brackets after ≈: the same amount, converted by molar mass.

What was measured:
[1] = system: Fluoroquinolone Sensitive Strains; test: In-vitro antimicrobial test (MIC, two-fold serial agar dilution, NCCLS), Table 17; assay type: cell-based
Description: The test method was in accordance with the standard NCCLS protocol (Methods for Dilution Antimicrobial Susceptibility Tests for Bacteria that grow Aerobicially, Approved Standards, M7-A5, Fifth Edition, January 2000).
The antibacterial activities (minimum inhibitory concentration: MIC, […]) were determined by using the two-fold serial agar dilution method recommended by NCCLS. The media used for preculture and main culture were Tryptic Soya broth (Difco) and Mueller Hinton medium (Difco), respectively. The Mueller Hinton agar was supplemented with 5% sheep blood for streptococci. Overnight cultures were diluted with buffered saline (pH 7.2) to the final cell density of 5×10^6-10^7 CFU/ml, and each bacterial suspension was applied with a replicator (Denley's multipoint inoculator, UK) onto a series of Mueller-Hinton agar plates containing antibacterial agents at various concentrations. Final inoculum was approximately 10^4 CFU/spot. The plates were incubated for 18 hrs at 37° C. The MIC was defined as the lowest concentration of an antibacterial agent that inhibits the development of visible microbial growth on agar.

[2] = Escherichia coli, ATCC25922, E. coli ATCC 25922
[3] = Staphylococcus aureus, ATCC 25923 / MSSA, MSSA ATCC 25923
[4] = Streptococcus pneumoniae, ATCC49619, S. pneumoniae ATCC 49619

Row | melting point | MIC [1, 2] [µg/mL] | MIC [1, 3] [µg/mL] | MIC [1, 4] [µg/mL] | Compound | other results
1 | 201 to 203 °C | – | – | – | CCNC1CCN(c2c(F)cc3c(=O)c(C(=O)O)cn(C4CC4)c3c2C)CC1(C)C (stereo not drawn) [Compound 115, 1-Cyclopropyl-6-fluoro-1,4-dihydro-8-methyl-7-(4-ethylamino-3,3-dimethyl-1-piperidinyl)-4-oxo-quinoline-3-carboxylic acid] | –
2 | 238 to 240 °C | – | – | – | COc1c(N2CC(C)C(N)C(C)C2)c(F)cc2c(=O)c(C(=O)O)cn(C3CC3)c12 (stereo not drawn) [Example 33, 1-cyclopropyl-6-fluoro-1,4-dihydro-8-methoxy-7-(4-amino-3,5-dimethyl-1-piperidinyl)-4-oxo-quinoline-3-carboxylic acid] | –
3 | 178 °C (dec.) | – | – | – | COc1c(N2CCC(N(C)C)C(C)(C)C2)c(F)c(N)c2c(=O)c(C(=O)O)cn(C3CC3)c12 (stereo not drawn) [Compound 76, 5-Amino-1-cyclopropyl-6-fluoro-1,4-dihydro-8-methoxy-7-(4-dimethylamino-3,3-dimethyl-1-piperidinyl)-4-oxo-quinoline-3-carboxylic acid] | –
4 | – | 0.8 (≈ 2.06 µM) | 0.1 (≈ 0.257 µM) | 0.8 (≈ 2.06 µM) | CCc1c(N2CC[C@H](O)[C@H](C)C2)c(F)cc2c(=O)c(C(=O)O)cn(C3CC3)c12 (relative stereo) [Compound 120, cis-1-Cyclopropyl-6-fluoro-8-ethyl-7-(4-hydroxy-3-methyl-1-piperidinyl)-1,4-dihydro-4-oxo-quinoline-3-carboxylic acid] | –
5 | – | 0.2 (≈ 0.436 µM) | 0.05 (≈ 0.109 µM) | 0.2 (≈ 0.436 µM) | COc1c(N2CCC(NC3CC3)C(C)(C)C2)c(F)c(N)c2c(=O)c(C(=O)O)cn(C3CC3)c12 (stereo not drawn) [Compound 75, 5-Amino-1-cyclopropyl-6-fluoro-1,4-dihydro-8-methoxy-7-(4-cyclopropylamino-3,3-dimethyl-1-piperidinyl)-4-oxo-quinoline-3-carboxylic acid] | –
6 | 250 °C (dec.) | – | – | – | CNC1CCN(c2c(F)c(N)c3c(=O)c(C(=O)O)cn(C4CC4)c3c2OC)CC1(C)C (stereo not drawn) [Compound 73, 5-Amino-1-cyclopropyl-6-fluoro-1,4-dihydro-8-methoxy-7-(4-methylamino-3,3-dimethyl-1-piperidinyl)-4-oxo-quinoline-3-carboxylic acid] | –
7 | 248 to 250 °C (dec.) | – | – | – | COc1c(N2CC(C)C(N)C(C)C2)c(F)c(N)c2c(=O)c(C(=O)O)cn(C3CC3)c12 (stereo not drawn) [Example 53, 5-Amino-1-cyclopropyl-6-fluoro-1,4-dihydro-8-methoxy-7-(4-amino-3,5-dimethyl-1-piperidinyl)-4-oxo-quinoline-3-carboxylic acid] | –
8 | 210 to 212 °C | – | – | – | CCC1(C)CN(c2c(F)cc3c(=O)c(C(=O)O)cn(C4CC4)c3c2OC)CCC1N(C)C (stereo not drawn) [Compound 42, 1-Cyclopropyl-6-fluoro-1,4-dihydro-8-methoxy-7-(4-dimethylamino-3-ethyl-3-methyl-1-piperidinyl)-4-oxo-quinoline-3-carboxylic acid] | –
9 | 248 °C | – | – | – | COc1c(N2CC(C)C(NC3CC3)C(C)C2)c(F)c(N)c2c(=O)c(C(=O)O)cn(C3CC3)c12 (stereo not drawn) [Example 60, 5-Amino-1-cyclopropyl-6-fluoro-1,4-dihydro-8-methoxy-7-(4-cyclopropylamino-3,5-dimethyl-1-piperidinyl)-4-oxo-quinoline-3-carboxylic acid] | –
10 | 217 to 219 °C | – | – | – | CCC1CN(c2c(F)c(N)c3c(=O)c(C(=O)O)cn(C4CC4)c3c2OC)CCC1O (stereo not drawn) [Compound 137, 5-Amino-1-cyclopropyl-6-fluoro-1,4-dihydro-8-methoxy-7-(4-hydroxy-3-ethyl-1-piperidinyl)-4-oxo-quinoline-3-carboxylic acid] | –
11 | 240 to 242 °C | – | – | – | COc1c(N2CC(C)C(NC3CC3)C(C)C2)c(F)cc2c(=O)c(C(=O)O)cn(C3CC3)c12 (stereo not drawn) [Example 41, 1-cyclopropyl-6-fluoro-1,4-dihydro-8-methoxy-7-(4-cyclopropylamino-3,5-dimethyl-1-piperidinyl)-4-oxo-quinoline-3-carboxylic acid] | –
12 | 248 to 252 °C | – | – | – | COc1c(N2CC(C)C(N)C(C)(C)C2)c(F)c(N)c2c(=O)c(C(=O)O)cn(C3CC3)c12 (stereo not drawn) [Compound 87, 5-Amino-1-cyclopropyl-6-fluoro-1,4-dihydro-8-methoxy-7-(4-amino-3,3,5-trimethyl-1-piperidinyl)-4-oxo-quinoline-3-carboxylic acid] | –
13 | – | 6.25 (≈ 14.1 µM) | 1.56 (≈ 3.52 µM) | > 6.25 | COc1c(N2CC(C)C(NC3CC3)C(C)C2)c(F)cc2c(=O)c(C(=O)O)cn(C3CC3)c12 (stereo not drawn) [Compound 48, 1-Cyclopropyl-6-fluoro-1,4-dihydro-8-methoxy-7-(4-cyclopropylamino-3,5-dimethyl-1-piperidinyl)-4-oxo-quinoline-3-carboxylic acid] | –
14 | 260 to 262 °C | – | – | – | COc1c(N2CCC(N)C(C)C2)c(F)c(N)c2c(=O)c(C(=O)O)cn(C3CC3)c12 (stereo not drawn) [Compound 53, 5-Amino-1-cyclopropyl-6-fluoro-1,4-dihydro-8-methoxy-7-(4-amino-3-methyl-1-piperidinyl)-4-oxo-quinoline-3-carboxylic acid] | –
15 | 210 °C | – | – | – | COc1c(N2CCC(N(C)C)C(C)(C)C2)c(F)cc2c(=O)c(C(=O)O)cn(C3CC3)c12 (stereo not drawn) [Compound 38, 1-Cyclopropyl-6-fluoro-1,4-dihydro-8-methoxy-7-(4-dimethylamino-3,3-dimethyl-1-piperidinyl)-4-oxo-quinoline-3-carboxylic acid] | –
16 | 250 to 255 °C | – | – | – | CCNC1C(C)CN(c2c(F)cc3c(=O)c(C(=O)O)cn(C4CC4)c3c2OC)CC1C (stereo not drawn) [Example 39, 1-cyclopropyl-6-fluoro-1,4-dihydro-8-methoxy-7-(4-ethylamino-3,5-dimethyl-1-piperidinyl)-4-oxo-quinoline-3-carboxylic acid] | –
17 | 233 to 235 °C | – | – | – | CNC1CCN(c2c(F)cc3c(=O)c(C(=O)O)cn(C4CC4)c3c2C)CC1C (stereo not drawn) [Compound 113, 1-Cyclopropyl-6-fluoro-1,4-dihydro-8-methyl-7-(4-methylamino-3-methyl-1-piperidinyl)-4-oxo-quinoline-3-carboxylic acid] | –
18 | 230 to 232 °C | – | – | – | CCNC1CCN(c2c(F)c(N)c3c(=O)c(C(=O)O)cn(C4CC4)c3c2OC)CC1C (stereo not drawn) [Compound 61, 5-Amino-1-cyclopropyl-6-fluoro-1,4-dihydro-8-methoxy-7-(4-ethylamino-3-methyl-1-piperidinyl)-4-oxo-quinoline-3-carboxylic acid] | –
19 | – | 0.4 (≈ 0.994 µM) | 0.025 (≈ 0.0621 µM) | 0.2 (≈ 0.497 µM) | Cc1c(N2CCC(N)C(C)(C)C2)c(F)c(N)c2c(=O)c(C(=O)O)cn(C3CC3)c12 (single isomer, unassigned; (-)) [Compound 133, (−)-5-Amino-1-cyclopropyl-6-fluoro-1,4-dihydro-8-methyl-7-(4-amino-3,3-dimethyl-1-piperidinyl)-4-oxo-quinoline-3-carboxylic acid] | –
20 | – | – | – | – | Cc1c(N2CCC(O)C(C)C2)c(F)cc2c(=O)c(C(=O)O)cn(C3CC3)c12 (mixture of isomers) [Compound 92, cis/trans-1-Cyclopropyl-6-fluoro-8-methyl-7-(4-hydroxy-3-methyl-1-piperidinyl)-1,4-dihydro-4-oxo-quinoline-3-carboxylic acid] | MICs ([1]; E. coli ATCC 25922): 0.05 µg/mL; MICs ([1]; MSSA ATCC 25923): 0.1 µg/mL
21 | – | 0.1 (≈ 0.247 µM) | 0.05 (≈ 0.123 µM) | 0.1 (≈ 0.247 µM) | CCn1cc(C(=O)O)c(=O)c2cc(F)c(N3CC(C)C(NC)C(C)C3)c(OC)c21 (stereo not drawn) [Compound 46, 1-Ethyl-6-fluoro-1,4-dihydro-8-methoxy-7-(4-methylamino-3,5-dimethyl-1-piperidinyl)-4-oxo-quinoline-3-carboxylic acid] | –
22 | – | 0.4 (≈ 0.956 µM) | < 0.006 | 0.1 (≈ 0.239 µM) | COc1c(N2CC(C)C(O)C(C)(C)C2)c(F)cc2c(=O)c(C(=O)O)cn(C3CC3)c12 (stereo not drawn) [Compound 147, 1-Cyclopropyl-6-fluoro-1,4-dihydro-8-methoxy-7-(4-hydroxy-3,3,5-trimethyl-1-piperidinyl)-4-oxo-quinoline-3-carboxylic acid] | –
23 | – | 0.4 (≈ 0.815 µM) | 0.05 (≈ 0.102 µM) | 0.2 (≈ 0.408 µM) | CCOC(=O)NC1CCN(c2c(F)c(N)c3c(=O)c(C(=O)O)cn(C4CC4)c3c2OC)CC1(C)C (stereo not drawn) [Compound 70, 5-Amino-1-cyclopropyl-6-fluoro-1,4-dihydro-8-methoxy-7-(4-ethoxycarbonylamino-3,3-dimethyl-1-piperidinyl)-4-oxo-quinoline-3-carboxylic acid] | –
24 | – | 1.56 (≈ 3.86 µM) | 0.025 (≈ 0.0618 µM) | 0.4 (≈ 0.989 µM) | COc1c(N2CC(C)C(O)C(C)C2)c(F)cc2c(=O)c(C(=O)O)cn(C3CC3)c12 (stereo not drawn) [Compound 145, 1-Cyclopropyl-6-fluoro-1,4-dihydro-8-methoxy-7-(4-hydroxy-3,5-dimethyl-1-piperidinyl)-4-oxo-quinoline-3-carboxylic acid] | –
25 | – | 1.56 (≈ 3.88 µM) | 0.8 (≈ 1.99 µM) | – | Cc1c(N2CCC(N)C(C)(C)C2)c(F)c(N)c2c(=O)c(C(=O)O)cn(C3CC3)c12 (racemic) [Compound 131, (±)-5-Amino-1-cyclopropyl-6-fluoro-1,4-dihydro-8-methyl-7-(4-amino-3,3-dimethyl-1-piperidinyl)-4-oxo-quinoline-3-carboxylic acid] | –

Row | Compound | melting point | MIC [1, 2] [µg/mL] | MIC [1, 3] [µg/mL] | MIC [1, 4] [µg/mL] | other results
26 | COc1c(N2CCC(N)C(C)(C)C2)c(F)cc2c(=O)c(C(=O)O)cn(C3CC3)c12 (racemic) [Compound 17, (±)-1-Cyclopropyl-6-fluoro-1,4-dihydro-8-methoxy-7-(4-amino-3,3-dimethyl-1-piperidinyl)-4-oxo-quinoline-3-carboxylic acid] | – | 0.4 (≈ 0.991 µM) | 0.4 (≈ 0.991 µM) | – | –
